The text below walks through data of ChEMBL document CHEMBL1129176, “Enantio-dependence of inducer-specific bidirectional regulation of tumor necrosis factor (TNF)-alpha production: Potent TNF- production inhibitors” (1996).

Molecules are shown by their SMILES.

Holding throughout (format): functional, Homo sapiens
In assay [1] the test system is HL-60. In words: Compound was evaluated for the amount of TNF-alpha produced by HL-60 cells in the presence of 12-O-tetradecanoylphorbol-13-acetate (TPA) at concentration 0.3 uM.
Assay [2] has as its system HL-60. Put plainly: Compound was evaluated for the amount of TNF-alpha produced by HL-60 cells in the presence of Okadaic acid (OA) at concentration 0.3 uM.
The test system of assay [3] is HL-60. In words: Compound was evaluated for the amount of TNF-alpha produced by HL-60 cells in the presence of Okadaic acid (OA) at concentration 30 uM.
Assay [4] concerns HL-60. Put plainly: Compound was evaluated for the amount of TNF-alpha produced by HL-60 cells in the presence of 12-O-tetradecanoylphorbol-13-acetate (TPA) at concentration 30 uM.

Consider `C[C@@H](c1cccc2ccccc12)N1C(=O)c2c(F)c(F)c(F)c(F)c2C1=O`, for which the Production in the assay with HL-60 [1] and in the assay with HL-60 [2] was 101% each time.
For `C[C@H](c1ccccc1)N1C(=O)c2c(F)c(F)c(F)c(F)c2C1=O`, the figures for the Production with HL-60 [1] and with HL-60 [2] were 97% and 2%, respectively.
For `C[C@@H](c1ccccc1)N1C(=O)c2c(F)c(F)c(F)c(F)c2C1=O`, in that order: 143% and 70%.
As to `C[C@H](c1cccc2ccccc12)N1C(=O)c2c(F)c(F)c(F)c(F)c2C1=O`, the Production is given as 100% in the assay on HL-60 [1] and 2% in the assay on HL-60 [2].
Consider `C[C@@]1(N2C(=O)c3ccccc3C2=O)CCC(=O)NC1=O`, for which the Production with HL-60 [3] turned out to be 39%; in the assay with HL-60 [4], 103%.
Turning to `C[C@]1(N2C(=O)c3ccccc3C2=O)CCC(=O)NC1=O`, the Production in the assay on HL-60 [3] is given as 75%; in the assay on HL-60 [4], 358%.
In the case of `C[C@@H](C1CCCCC1)N1C(=O)c2c(F)c(F)c(F)c(F)c2C1=O`, the results for the Production in the assay with HL-60 [1] and with HL-60 [2] were 124% and 65%, respectively.
The corresponding values for `C[C@H](C1CCCCC1)N1C(=O)c2c(F)c(F)c(F)c(F)c2C1=O` are 98% and 10%.
`O=C1CCC(N2C(=O)c3ccccc3C2=O)C(=O)N1` (stereo not drawn) [THALIDOMIDE]: the Production in the assay with HL-60 [3] stood at 58%; with HL-60 [4] it was 135%.
